*1 amine or outer side, *2 acyl side, *3 side chain or, on linkers, in order; H or OH if unused. Where a SMILES comes first, the peptide text is derived from it. Bridges are numbered along the chain shown (N, C = ends). [ ]: non-standard residue; d: D form. X1 = O=C(O)CCCCCCCCCCCCCCCCCCC(=O)N[C@@H](CCCCNC(=O)COCCOCCNC(=O)COCCOCCNC(=O)CCC(=O)N(CCNC(=O)C[*:1])CCNC(=O)C[*:2])C(=O)O; Phe(2-F) = N[C@@H](Cc1ccccc1F)C(=O)O; αMeL = CC(C)C[C@](C)(N)C(=O)O; Aib = CC(C)(N)C(=O)O
Legend:
GLP-1R = target: T1, GLP-1R (Homo sapiens, UniProt P43220); assay: CreLuc method (CRE-luciferase reporter), HEK293/pGM-CREB-L-Luc/GLP-1R pool; type: cell-based; settings: 6 h incubation, read-out: EC50 (pM) for each receptor GLP-1R
T1 construct: expressed in transfected cells
How it was run: (§1)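 Stable HEK293 pools co-expressing each receptor with a CRE-luciferase reporter were plated at 20,000 cells/well in freestyle medium and treated with compound dilution series for 6 h at 37 °C. Luminescence was read with ONE-GLO to derive EC50.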

GIPR [1] = target: T2, GIPR (Homo sapiens, UniProt P48546); assay: CreLuc method (CRE-luciferase reporter), HEK293/pGM-CREB-L-Luc/GIPR pool; type: cell-based; settings: 6 h incubation, read-out: EC50 (pM) for each receptor GIPR
T2 construct: expressed in transfected cells
T2 sequence (P48546 22-466): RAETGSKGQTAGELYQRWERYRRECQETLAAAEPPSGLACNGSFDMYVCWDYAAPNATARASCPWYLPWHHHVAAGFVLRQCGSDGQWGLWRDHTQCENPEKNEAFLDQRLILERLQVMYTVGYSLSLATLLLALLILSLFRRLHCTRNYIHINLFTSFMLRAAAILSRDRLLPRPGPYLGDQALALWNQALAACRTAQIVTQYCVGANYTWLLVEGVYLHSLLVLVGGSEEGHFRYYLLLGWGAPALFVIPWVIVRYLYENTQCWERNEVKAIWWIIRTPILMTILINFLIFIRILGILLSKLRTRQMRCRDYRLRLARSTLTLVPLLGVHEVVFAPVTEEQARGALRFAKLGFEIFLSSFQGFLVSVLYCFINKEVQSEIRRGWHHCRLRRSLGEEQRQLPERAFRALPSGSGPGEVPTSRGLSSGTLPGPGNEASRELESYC
How it was run: as §1

GCGR [2] = target: T3, GCGR (Homo sapiens, UniProt P47871); assay: CreLuc method (CRE-luciferase reporter), 293HEK/pGM-CREB-L-Luc/GCGR pool; type: cell-based; settings: 6 h incubation, read-out: EC50 (pM) for each receptor GCGR
T3 construct: expressed in transfected cells
How it was run: as §1

in vivo = assay: in vivo; parameters: species or system male SD rats; settings: rat
Description: The pharmacokinetic behavior of target peptide derivatives (or polypeptide derivatives) prepared in Example 1 and Example 2, i.e., TG1-TG94 in rodents was tested. The specific steps are as follows:
The target peptide derivatives (TG1-TG94) to be tested were administered to male SD rats via subcutaneous injection (SC, 3 mg/kg; drug vehicle: PBS, concentration: 1.5 mg/mL; administration volume: 2 mL) and intravenous injection (IV, 1 mg/kg; drug vehicle: PBS, concentration: 0.5 mg/mL; administration volume: 2 mL) as a single dose, respectively. Whole blood samples were collected from the jugular vein or other appropriate vein at the following time points after administration: for SC, 15 min, 30 min, 1 h, 2 h, 4 h, 6 h, 8 h, 24 h, 48 h, 72 h, 96 h, 120 h, and 168 h; for IV, 5 min, 15 min, 30 min, 1 h, 2 h, 4 h, 8 h, 24 h, 48 h, 72 h, 96 h, 120 h, and 168 h. 0.2 mL of blood was collected and transferred into a labeled EDTA-K2 anticoagulant tube. The tube was gently inverted to ensure thorough mixing of the anticoagulant (EDTA-K2) with the blood and immediately placed on wet ice. Plasma separation was performed as soon as possible by centrifugation under the following conditions: 4°C, 6800xg, for 6 min. The plasma samples were stored in a refrigerator at no higher than -20°C and used for analysis when needed.
Under the condition of yellow light in an ice-water bath, except for blank samples, 300 µL of precipitant containing an internal standard was added to a 96-well plate containing 20 µL of standard curve sample, quality control sample, or unknown sample; 300 µL of acetonitrile was added to the blank sample. The mixture was vortexed, mixed well, and then centrifuged. 150 µL of the supernatant after centrifugation was transferred to a new 96-well plate, and 150 µL of ultrapure water was added and mixed well. The above samples were subjected to quantitative analysis using LC-MS analysis with XB-C18 (2.1 * 100 mm, 3 µm) chromatography for gradient elution. The mobile phases used were: mobile phase A = 0.1% formic acid-water; mobile phase B = acetonitrile. Phoenix WinNonlin software was used to calculate the pharmacokinetic parameters. […] Table 5A: Pharmacokinetic parameters of target peptide derivatives

GIPR [3] = target: T2, GIPR; assay: cAMP method (HTRF cAMP detection kit), HEK293/pGM-CREB-L-Luc/GIP pool; type: cell-based; settings: read-out: EC50 (pM) for each receptor GIPR
Description: (§2) 2. Insulinotropic analogues can bind to target receptors on the cell membrane, activate the receptors, and induce release. The activity of the test substance can be determined using the HTRF method with a cAMP detection kit. Therefore, the cAMP method can be used to detect the target peptide derivatives (or polypeptide derivatives, i.e., TG1-TG86) prepared in Example 1 and Example 2. […] The test cell line was selected, treated with cAMP-specific trypsin for digestion. 3 mL of serum-free DMEM culture medium was added, and the cells were pipetted, resuspended, and counted. 5 µL of IBMX (prepared with serum-free DMEM medium, 0.5 mM) and test cells (5 µL/7500 cells/well) were added in a 384-well plate sequentially. The plate was incubated at 37°C under 5% CO2 for 30 min, followed by the addition of cAMP-d2 (5 µL, 1x) and Anti-cAMP-Cryptate (5 µL, 1x). The mixture was kept at room temperature for 1 h, after which the HTRF value was measured using a chemiluminescent microplate reader, and the determination result was recorded. […] Table 4: EC50 values for target peptide derivatives

GCGR [4] = target: T3, GCGR; assay: cAMP method (HTRF cAMP detection kit), HEK293/pGM-CREB-L-Luc/GCG pool; type: cell-based; settings: read-out: EC50 (pM) for each receptor GCGR
Description: as §2

T3 sequence (P47871 26-477, species assumed): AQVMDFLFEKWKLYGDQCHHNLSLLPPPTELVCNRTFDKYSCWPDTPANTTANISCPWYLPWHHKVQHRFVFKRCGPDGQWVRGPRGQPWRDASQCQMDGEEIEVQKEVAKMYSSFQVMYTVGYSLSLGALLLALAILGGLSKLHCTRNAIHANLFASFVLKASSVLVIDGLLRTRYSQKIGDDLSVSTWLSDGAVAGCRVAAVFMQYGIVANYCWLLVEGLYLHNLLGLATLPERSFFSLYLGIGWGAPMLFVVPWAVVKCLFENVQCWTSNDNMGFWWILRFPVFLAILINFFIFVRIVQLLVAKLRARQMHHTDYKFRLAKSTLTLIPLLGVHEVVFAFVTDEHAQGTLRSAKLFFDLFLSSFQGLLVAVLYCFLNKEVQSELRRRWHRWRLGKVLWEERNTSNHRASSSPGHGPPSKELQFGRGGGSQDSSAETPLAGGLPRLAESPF
T1 sequence (P43220 24-463, species assumed): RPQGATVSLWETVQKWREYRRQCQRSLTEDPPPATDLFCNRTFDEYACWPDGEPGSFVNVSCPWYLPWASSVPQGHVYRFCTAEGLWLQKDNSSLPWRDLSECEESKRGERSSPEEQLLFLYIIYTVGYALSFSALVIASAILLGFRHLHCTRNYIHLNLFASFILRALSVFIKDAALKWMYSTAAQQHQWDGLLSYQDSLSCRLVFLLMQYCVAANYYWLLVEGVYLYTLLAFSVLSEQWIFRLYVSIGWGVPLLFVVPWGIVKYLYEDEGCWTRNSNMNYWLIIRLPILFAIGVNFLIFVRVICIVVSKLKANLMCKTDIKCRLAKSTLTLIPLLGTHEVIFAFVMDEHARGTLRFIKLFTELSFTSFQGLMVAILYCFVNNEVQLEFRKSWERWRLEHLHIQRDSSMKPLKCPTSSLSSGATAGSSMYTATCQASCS

CC[C@H](C)[C@H](NC(=O)[C@H](Cc1ccccc1)NC(=O)[C@H](C)NC(=O)[C@@H]1CCCCNC(=O)CN(C(=O)CCCNC(=O)COCCOCCNC(=O)COCCOCCNC(=O)CC[C@H](NC(=O)CCCCCCCCCCCCCCCCCCC(=O)O)C(=O)O)CC(=O)NCCCC[C@H](NC(=O)[C@H](CCCCN)NC(=O)[C@H](CC(=O)O)NC(=O)[C@H](CC(C)C)NC(=O)[C@](C)(CC(C)C)NC(=O)[C@@H](NC(=O)[C@H](CO)NC(=O)[C@H](Cc2ccc(O)cc2)NC(=O)[C@H](CC(=O)O)NC(=O)[C@H](CO)NC(=O)[C@@H](NC(=O)[C@H](Cc2ccccc2F)NC(=O)[C@@H](NC(=O)CNC(=O)[C@H](CCC(N)=O)NC(=O)C(C)(C)NC(=O)[C@@H](N)Cc2ccc(O)cc2)[C@@H](C)O)[C@@H](C)O)[C@@H](C)CC)C(=O)N[C@@H](C)C(=O)N[C@@H](CCC(N)=O)C(=O)N1)C(=O)N[C@@H](CCC(=O)O)C(=O)N[C@@H](Cc1ccc(O)cc1)C(=O)N[C@@H](CC(C)C)C(=O)N[C@@H](CC(C)C)C(=O)N[C@@H](C)C(=O)NCC(=O)NCC(=O)N1CCC[C@H]1C(=O)N[C@@H](CO)C(=O)N[C@@H](CO)C(=O)NCC(=O)N[C@@H](C)C(=O)N1CCC[C@H]1C(=O)N1CCC[C@H]1C(=O)N1CCC[C@H]1C(=O)N[C@@H](CO)C(N)=O [TG87]
EC50 (GLP-1R): 171 pM | EC50 (GIPR [1]): 27.6 pM | EC50 (GCGR [2]): 172 pM | AUC(0-inf) (in vivo; male, SD, iv, 1 mg/kg): 257 µg·h/mL | AUC(0-t) (in vivo; male, SD, iv, 1 mg/kg): 254 µg·h/mL | MRT (in vivo; male, SD, iv, 1 mg/kg): 21.4 h | Vd (in vivo; male, SD, iv, 1 mg/kg): 0.0891 L/kg | clearance (in vivo; male, SD, iv, 1 mg/kg): 0.0706 mL/min/kg | half-life (in vivo; male, SD, iv, 1 mg/kg): 13.9 h | bioavailability (in vivo; male, SD, sc): 31.8% | AUC(0-inf) (in vivo; male, SD, sc, 3 mg/kg): 245 µg·h/mL | AUC(0-t) (in vivo; male, SD, sc, 3 mg/kg): 243 µg·h/mL | CL/F (in vivo; male, SD, sc, 3 mg/kg): 0.204 mL/min/kg | Cmax (in vivo; male, SD, sc, 3 mg/kg): 4880 ng/mL | MRT (in vivo; male, SD, sc, 3 mg/kg): 32.3 h | Tmax (in vivo; male, SD, sc, 3 mg/kg): 24 h | half-life (in vivo; male, SD, sc, 3 mg/kg): 15.6 h | AUC0-t /AUC0-inf (in vivo; iv, 1 mg/kg): 0.989 | Kel (in vivo; iv, 1 mg/kg): 0.0504 h⁻¹ | AUC0-t /AUC0-inf (in vivo; sc, 3 mg/kg): 0.993 | Vz/F (in vivo; sc, 3 mg/kg): 0.276 L/kg

CC[C@H](C)[C@H](NC(=O)[C@H](Cc1ccccc1)NC(=O)[C@H](C)NC(=O)[C@@H]1CSCC(=O)NCCN(C(=O)CCC(=O)NCCOCCOCC(=O)NCCOCCOCC(=O)NCCCC[C@H](NC(=O)CCCCCCCCCCCCCCCCCCC(=O)O)C(=O)O)CCNC(=O)CSC[C@H](NC(=O)[C@H](CCCCN)NC(=O)[C@H](CC(=O)O)NC(=O)[C@H](CC(C)C)NC(=O)[C@](C)(CC(C)C)NC(=O)[C@@H](NC(=O)[C@H](CO)NC(=O)[C@H](Cc2ccc(O)cc2)NC(=O)[C@H](CC(=O)O)NC(=O)[C@H](CO)NC(=O)[C@@H](NC(=O)[C@H](Cc2ccccc2F)NC(=O)[C@@H](NC(=O)CNC(=O)[C@H](CCC(N)=O)NC(=O)C(C)(C)NC(=O)[C@@H](N)Cc2ccc(O)cc2)[C@@H](C)O)[C@@H](C)O)[C@@H](C)CC)C(=O)N[C@@H](C)C(=O)N[C@@H](CCC(N)=O)C(=O)N1)C(=O)N[C@@H](CCC(=O)O)C(=O)N[C@@H](Cc1ccc(O)cc1)C(=O)N[C@@H](CC(C)C)C(=O)N[C@@H](CC(C)C)C(=O)N[C@@H](C)C(=O)NCC(=O)NCC(=O)N1CCC[C@H]1C(=O)N[C@@H](CO)C(=O)N[C@@H](CO)C(=O)NCC(=O)N[C@@H](C)C(=O)N1CCC[C@H]1C(=O)N1CCC[C@H]1C(=O)N1CCC[C@H]1C(=O)N[C@@H](CO)C(N)=O [TG59] (H-Y[Aib]QGT[Phe(2-F)]TSDYSI[αMeL]LDKCAQCAFIEYLLAGGPSSGAPPPS-NH2; linker 17-20 via X1)
EC50 (GLP-1R): 51.8 pM | EC50 (GIPR [1]): 30.7 pM | EC50 (GCGR [2]): 392 pM | EC50 (GIPR [3]): 3.9 pM | EC50 (GCGR [4]): 9.1 pM

From patent EP4790066A1, “GLP-1R/GIPR/GCGR TRIPLE AGONIST ANALOGUE AND USE THEREOF” (Shenzhen Bay Laboratory, priority 2023, dated 2025)
